Assay results: US20190183868A1, “FORMULATIONS AND TREATMENTS EMPLOYING HYDROXYPYRIDONATE ACTINIDE/LANTHANIDE DECORPORATION AGENTS” (priority 2016, published 2019)

Assays:
[1] = ADME studies with ^14C-labeled 3,4,3-LI(1,2-HOPO) in rats (brain); type: in vivo; conditions: ^14C-labeled ligand; traces in rat brain several days after administration
Text: (§1) This property is particularly relevant to target Gd deposited in the brain.

[2] = Complex stability constant in vitro, Cm(III); type: binding
Text: (§2) The mechanism of action of 3,4,3-LI(1,2-HOPO) is a chelation mechanism, in which the compound binds the targeted actinide and forms a stable complex that can be eliminated through excretion pathways. Chelation is likely to be clinically efficacious if the affinity of the chelating agent for the targeted actinide metal ion is higher than those of potential biological ligands (such as proteins and bone matrices) and if its affinity for the targeted actinide metal ion is more specific than for essential divalent metal ions. A quantitative tool to predict the efficacy of a chelating agent and confirm its potential for actinide chelation is the determination of the corresponding actinide complex stability constants in vitro. As outlined in Example 2 below, these constants were evaluated for metals such as Pu(IV) (Log β110>41.5) or Cm(III) (Log β110=21.8), and support the chelation mechanism of action by 3,4,3-LI(1,2-HOPO).

[3] = Delayed parenteral (ip) chelation treatment of mice contaminated iv with ^238Pu-citrate; type: in vivo, Swiss-Webster mice; conditions: for adverse effects at the dose levels used: both studies (delayed and prophylactic treatment); for sustained action beyond 24 hours after treatment: cumulative ^238Pu excretion, FIG. 4; for ^238Pu excretion pathway enhanced by treatment: independent of post-contamination treatment time, FIG. 5; for time by which rates of elimination became slower than in control animals: prompt treatment 1 hour post-contamination; for ^238Pu elimination, total body burden and tissue content versus saline-treated controls: 7 days after treatment
Experimental: (§3) A stock solution of ^238Pu-nitrate in 4 M HNO3 was purchased from Eckert and Ziegler Isotope Products (Valencia, CA, USA) and used to prepare injection solutions. Contamination doses consisted of 0.2 mL aliquots of solutions containing 0.74 kBq (1.16 ng) of ^238Pu in 0.008 M sodium citrate and 0.14 M NaCl, pH 4. The ligands 3,4,3-LI(1,2-HOPO) and 5-LIO(Me-3,2-HOPO) were prepared by Synthetech, Inc. (Albany, Oreg., USA) and Albany Molecular Research, Inc. (Albany, NY, USA), respectively, as described previously. DTPA was obtained from Sigma-Aldrich (St. Louis, Mo., USA) and was formulated as Ca-DTPA using CaCO3 and NaOH, similarly to the formerly available drug product commercialized by Hameln Pharmaceuticals gmbh (Hameln, Germany). Ligand solutions were prepared such that the selected dosages ([…] for Ca-DTPA, 30 or 100 mol/kg for 3,4,3-LI(1,2-HOPO), and 100 or 200 mol/kg for 5-LIO(Me-3,2-HOPO)) were contained in 0.5 mL of 0.14 M NaCl, with the pH adjusted to 7.4-8.4 with 1 N NaOH. All solutions were filter-sterilized (0.22 μm) prior to administration. The concentration of each solution was verified by high-performance liquid chromatography, following modified published methods.
(§4) All procedures and protocols used in the described in vivo studies were reviewed and approved by the Institutional Animal Care and Use Committee of Lawrence Berkeley National Laboratory and were performed in AAALAC accredited facilities. The animals used were young adult (86±6 days old for delayed treatment experiment and 90±3 days old for prophylactic treatment experiment) female (30.7±4.0 g for delayed treatment experiment and 30.8±1.6 g for prophylactic treatment experiment) Swiss-Webster mice (Simonsen Laboratories, Gilroy, Calif., USA). Gross body and tissue compositions, plasma, extracellular fluid, and red cell volumes of the whole body, major tissues and organs of these mice (intact or bled 25 to 40% of their total blood volume) have been determined previously. Mice were kept under a 12-hour light cycle with controlled temperature (18-22° C.) and relative humidity (30-70%), and were given water and food ad libitum. Each group of mice was housed together in a plastic stock cage lined with a 0.5 cm layer of highly absorbent low-ash pelleted cellulose bedding (ALPHA-dri®) for separation of urine and feces. Intravenous (iv) injections into a warmed lateral tail vein, intraperitoneal (ip) injections, oral administrations (po, through gastric intubation) and euthanasia were performed under isoflurane anesthesia. Treatment dose volumes were adjusted based on the weight of the mouse, with a 0.5 mL volume corresponding to a 35 g mouse. To probe the effect of delayed treatment, groups of five mice were injected iv with a single dose of ^238Pu-citrate, and ligand or control saline solutions were administered ip once at the following post-contamination treatment times: 1 h, 5 h, 16 h, 24 h, 3 d, 7 d. Excreta were collected daily for 7 days. Animals were euthanized 7 days after treatment. To probe the effect of prophylactic treatment, groups of five mice were first administered ligand or control saline solutions ip or po once at the following pre-contamination treatment times: −1 h, −6 h, −16 h, −24 h, −30 h, −40 h, −48 h. Mice were then injected iv with a single dose of ^238Pu-citrate and excreta were collected daily for 3 days. Animals were euthanized 3 days (72 h) after contamination. Mice were euthanized by cervical dislocation over their respective cage to collect the urine expelled at death, and immediately wrapped in plastic and frozen for later dissection.
(§5) After partial thawing of the frozen mice, livers and kidneys were dissected, and the abdominal tissue remainder (ATR, which includes intact gastrointestinal (GI) tract, reproductive organs, spleen, urinary bladder, and abdominal fat) was removed. The livers, kidneys, ATR, and partially eviscerated carcasses were managed as individual samples. […]

[4] = Gd-153 decorporation in mice injected with ^153Gd citrate (Example 9); type: in vivo; conditions: for excretion pathway: Gd-153
Experimental: The present example is an evaluation of the metal-removal effectiveness of various molecules, including 3,4,3-LI(1,2-HOPO) and DTPA. The arrangements tested (which compounds, how much, how long pre or post-contamination the compound was administered, etc.) are outlined in Table 9.1.
The results of the various test arrangements in Table 9.1 are detailed in FIGS. 8A-8Q. The data is plotted as a percent of recovered dose (%RD), with whole animal and specific tissue isotope content determine at a unique time point (4 days post metal challenge) while excreta are determined daily until necropsy. […] The almost-exclusively-fecal excretion pathway of 3,4,3-LI(1,2-HOPO) is also remarkably different from that of DTPA (urinary). […] FIGS. 8A-8C depict a general overview of the results. FIG. 8D depicts a comparative analysis of the recovered dose in the body vs excreta. FIGS. 8E-8P depict a break down by tissue type, including brain (FIG. 8E), Thymus (FIG. 8F), heart (FIG. 8G), lungs (FIG. 8H), spleen (FIG. 8I), kidneys (FIG. 8J), abdominal remaining tissue (ART, FIG. 8K), all other soft tissues (SOFT, FIG. 8L), liver (FIG. 8M), and skeleton (SKEL, FIG. 8N). FIGS. 8O and 8P show the total urinary and fecal excretion at the time of necropsy. FIG. 8Q depicts the daily excreta.

[5] = Complex stability constant in vitro, Gd(III); type: binding
Text: as §2

[6] = Decorporation of actinide ions in animal studies, potency versus DTPA; type: in vivo
Text: as §1

[7] = Pharmacokinetics and biodistribution of ^14C-labeled ligand in mice; type: in vivo, Swiss-Webster mouse; conditions: for metabolic degradation: ^14C-labeled ligands
Text: The pharmacokinetics and biodistribution profile of the ^14C-labeled 3,4,3-LI(1,2-HOPO) were recently characterized in the young Swiss-Webster mouse model. After parenteral injection, the radiolabeled compound was rapidly distributed into high vascular tissues, and highest kidney and liver concentrations were seen as early as 1-hour post-administration. However, those high concentrations […] and more strikingly, about 40% of the administered dose was still in various tissues and organs after 24 hours. […] Nevertheless, retention of the ligand was significant within the first 6 hours after oral administration, which also corroborates the shorter but consequent prophylactic activity of 3,4,3-LI(1,2-HOPO) after oral administration.
Those differences have been discussed previously and are presumably based on respective ligand and actinide-complex physico-chemical parameters such as solubility, lipophilicity, and ionization constants. […] It is therefore likely that the radionuclide excretion path is ligand-driven.
(§6) Oral Activity. Both compounds are orally active actinide chelators: when administered orally to mice or beagles after a Pu injection, 3,4,3-LI-1,2-HOPO and 5-LIO-Me-3,2-HOPO can remove up to 80% and 60%, respectively, of the injected Pu.

[8] = Prophylactic parenteral or oral chelation treatment of mice before iv ^238Pu-citrate contamination; type: in vivo, Swiss-Webster mice; conditions: for prophylactic window with significant reductions in total body, skeleton and liver ^238Pu: oral administration, versus saline controls; for prophylactic window with significant reduction of body and tissue ^238Pu burden: parenteral (ip) administration prior to contamination
Experimental: as §3, §4, §5

[9] = Complex stability constant in vitro, Pu(IV); type: binding
Text: as §2

[10] = Clearing circulating or newly deposited Pu from mouse tissues compared with CaNa3-DTPA; type: in vivo
Text: For example, the efficiency of 3,4,3-LI-1,2-HOPO for clearing circulating Pu from mouse tissues ranges from 100 times (skeleton) to 240 times (soft tissues) that of CaNa3-DTPA in five different protocols. In addition, the optimal activity dose of 3,4,3-LI-1,2-HOPO for removing newly deposited Pu from mice is 2.5% of the dose of CaNa3-DTPA used clinically. The tetradentate 5-LIO-Me-3,2-HOPO has potential therapeutic value for Pu, U, Am and Np, and its efficiency for clearing circulating Pu from mouse tissues ranges from 5 times (skeleton) to 15 times (liver) that of CaNa3-DTPA.

[11] = Oral activity: removal of injected Pu after oral administration; type: in vivo; conditions: administered orally after a Pu injection, mice or beagles
Text: as §6

[12] = single ip dose 1 hour to 16 hours post-contamination

Compound: O=C(NCCCN(CCCCN(CCCNC(=O)c1cccc(=O)n1O)C(=O)c1cccc(=O)n1O)C(=O)c1cccc(=O)n1O)c1cccc(=O)n1O [3,4,3-LI(1,2-HOPO)]
- blood-brain barrier penetration [1]: can penetrate the blood-brain barrier
- Log β110 [2]: 21.8
- ^238Pu skeleton content ([3]; all tested treatment time points): significantly reduced
- adverse effects at the dose levels used [3]: did not result in any discernable adverse effects
- sustained action beyond 24 hours after treatment [3]: visible throughout the seven-day excreta collection period
- ^238Pu excretion pathway enhanced by treatment [3]: primarily through the biliary pathway
- time by which rates of elimination became slower than in control animals [3]: 3 days post-treatment
- decrease in ^238Pu content versus DTPA treatment [3, 12]: significantly better than those observed after DTPA treatment
- ^238Pu elimination, total body burden and tissue content versus saline-treated controls [3, 12]: significant increases in ^238Pu elimination rates
- ^238Pu elimination ([3]; treatment delayed 24 hours to 7 days after contamination): significantly enhanced
- Gd-153 removal ([4]; 100 μmol/kg ip, 48 hours post-exposure): extremely efficient
- Gd-153 decorporation ([4]; 100 μmol/kg ip, up to 24 hours prophylactically): high and almost quantitative level of decorporation
- excretion pathway [4]: almost-exclusively-fecal
- Gd-153 removal from kidneys ([4]; compared with DTPA): more efficient than DTPA
- Gd-153 removal from the skeleton ([4]; mouse, in vivo): ability at removing Gd-153 from the skeleton
- Log β110 [5]: 20.5
- potency relative to DTPA at decorporating actinide ions [6]: up to 30 times
- metabolic degradation [7]: stable to metabolic degradation
- administered dose still in various tissues and organs ([7]; after 24 hours, parenteral injection, ^14C-labeled): about 40%
- main mode of elimination of the ligand ([7]; mice, parenteral or oral administration, ^14C-labeled): biliary pathway is the main mode of elimination
- time of highest kidney and liver concentrations ([7]; post-administration, parenteral injection, ^14C-labeled): 1 h
- ^238Pu urinary output relative to fecal output ([8]; 30 μmol/kg ip 1 hour prior to contamination): 3 fold
- ^238Pu excreted within 3 days ([8]; ip injection 48 hours before contamination): up to 50%
- prophylactic window with significant reductions in total body, skeleton and liver ^238Pu [8]: 6 h
- prophylactic window with significant reduction of body and tissue ^238Pu burden [8]: ≥ 48 h
- full body, skeleton, liver, soft tissue and kidney ^238Pu content versus saline- and DTPA-treated groups ([8]; prophylactic ip treatment): large significant reductions
- oral bioavailability ([8]; reflected in lack of efficacy for earlier oral treatments): low
- Log β110 [9]: > 41.5
- optimal activity dose for removing newly deposited Pu, as share of the CaNa3-DTPA dose used clinically ([10]; mice): 2.5%
- efficiency for clearing circulating Pu relative to CaNa3-DTPA ([10]; mouse skeleton): 100 times
- efficiency for clearing circulating Pu relative to CaNa3-DTPA ([10]; mouse soft tissues): 240 times
- injected Pu removed [11]: up to 80%

Compound: Cn1ccc(C(=O)NCCOCCNC(=O)c2ccn(C)c(=O)c2O)c(O)c1=O [5-LIO(Me-3,2-HOPO)]
- adverse effects at the dose levels used [3]: did not result in any discernable adverse effects
- sustained action beyond 24 hours after treatment [3]: did not display significant sustained action
- ^238Pu excretion pathway enhanced by treatment [3]: primarily through the biliary pathway
- time by which rates of elimination became slower than in control animals [3]: 2 days post-treatment
- ^238Pu elimination, total body burden and tissue content versus saline-treated controls [3, 12]: significant increases in ^238Pu elimination rates
- metabolic degradation [7]: stable to metabolic degradation
- prophylactic window with significant reductions in total body, skeleton and liver ^238Pu [8]: 6 h
- prophylactic window with significant reduction of body and tissue ^238Pu burden [8]: 1 h
- efficiency for clearing circulating Pu relative to CaNa3-DTPA ([10]; mouse liver): 15 times
- efficiency for clearing circulating Pu relative to CaNa3-DTPA ([10]; mouse skeleton): 5 times
- injected Pu removed [11]: ≤ 60%

Compound: diethylenetriamine pentaacetic acid [DTPA, reference compound]
- sustained action beyond 24 hours after treatment [3]: visible over several days after treatment
- ^238Pu excretion pathway enhanced by treatment [3]: enhanced urinary excretion
- excretion pathway [4]: urinary
- prophylactic window with significant reduction of body and tissue ^238Pu burden [8]: 6 h
